Measurements from paper PMC6269309 (Haematologica, 2018).
Read-outs that look alike come from different tables or passages of the source.

What was measured:
PLCγ2 pY1217 = assay: Ex vivo PLCγ2 pY1217 phosphorylation in washed platelets of treated patients; design: species or system human; conditions: CLL patients, ibrutinib 420 mg once daily or acalabrutinib 100 mg twice daily
Btk pY551 = type: cell-based, human
Src pY418 = type: cell-based, human
Btk [1] = conditions: cited from earlier work
Tec = Tec phosphorylation, immunoprecipitation and blotting with 4G10; type: cell-based, human; conditions: washed platelets 8x10^8/mL, CRP 10 μg/mL 180 s
[2] = cited from earlier work
[3] = tested on: GPVI-mediated platelet aggregation (washed platelets, CRP); assay: Light transmission aggregometry, washed platelets stimulated with CRP; type: cell-based, human
[4] = tested on: platelet aggregation induced by ADP and PAR1 peptide; type: in vivo, human; conditions: patients taking either inhibitor, data not shown
Btk pY223 [5] = conditions: CLL patients, ibrutinib 420 mg once daily or acalabrutinib 100 mg twice daily
Btk pY223 [6] = type: cell-based, human
[7] = tested on: PLCγ2 pY753, pY759, pY1217; assay: Protein phosphorylation, western blot of CRP-stimulated washed platelets: PLCγ2; type: cell-based, human
[8] = tested on: GPVI-induced platelet aggregation; type: in vivo, human; conditions: CLL patients, ibrutinib 420 mg once daily or acalabrutinib 100 mg twice daily, PRP, 2-3 h after dose, CRP 10 μg/mL
SLP-76 pY145 = type: cell-based, human
[9] = cited from earlier work; remark: listed apart in the source
LAT pY200 = type: cell-based, human
Syk pY525/6 = type: cell-based, human
Btk [10] = conditions: doses of 2.5 mg/kg; cited from earlier work
[11] = tested on: Ca2+ mobilization in platelets; assay: Measurement of [Ca2+]i in Fura-2-loaded platelets stimulated with CRP; type: cell-based, human
[12] = tested on: NFAT signaling in DT40 cells; type: cell-based, chicken; conditions: collagen 10 μg/mL, no serum
[13] = tested on: whole cell tyrosine phosphorylation; assay: Whole cell tyrosine phosphorylation in CRP-stimulated washed platelets; type: cell-based, human
[14] = tested on: ATP secretion of washed platelets; assay: Granule release; type: cell-based, human
[15] = cited from earlier work; remark: listed apart in the source
[16] = higher concentrations, up to 200 μM

SMILES: CC#CC(=O)N1CCC[C@H]1c1nc(-c2ccc(C(=O)Nc3ccccn3)cc2)c2c(N)nccn12 [acalabrutinib]
- Phosphorylation of PLCγ2 pY1217 ex vivo (PLCγ2 pY1217): complete inhibition
- Phosphorylation of Btk Y551 (Btk pY551; [16]): small reduction
- Phosphorylation of Src Y418 (Src pY418; [16]): had no effect
- IC50 for Btk relative to ibrutinib (lower) (Btk [1]): 5 fold
- Potency as an inhibitor of Btk relative to ibrutinib (lower) (Btk [1]): 5 fold
- Concentration giving full blockade of Tec phosphorylation (Tec): 200 µM
- Concentration giving partial inhibition of Tec phosphorylation (Tec): approximately 1 μM
- Major hemorrhage in treated patients [2]: not seen
- Onset of aggregation ([3]; 2 μM, CRP): slight delay in aggregation
- Overall magnitude of aggregation response ([3]; 2 μM, CRP): no effect
- Platelet aggregation induced by ADP and PAR1 peptide ex vivo [4]: not altered
- Autophosphorylation of Btk pY223 ex vivo (Btk pY223 [5]): complete inhibition
- Tyrosine phosphorylation of Btk on Y223 (Btk pY223 [6]; 2 μM, CRP 10 μg/mL): blocked
- Tyrosine phosphorylation of PLCγ2 on Y759 and Y1217 ([7]; 2 μM, CRP 10 μg/mL): blocked
- GPVI-induced platelet aggregation ex vivo [8]: not blocked
- Phosphorylation of SLP-76 Y145 (SLP-76 pY145; [16]): small reduction
- Half-life [9]: 1 h
- Mean peak free drug concentration in patients ([9]; patients): 1.3 µM
- Phosphorylation of LAT Y200 (LAT pY200; [16]): had no effect
- Phosphorylation of Syk Y525/6 (Syk pY525/6; [16]): had no effect

SMILES: C=CC(=O)N1CCC[C@@H](n2nc(-c3ccc(Oc4ccccc4)cc3)c3c(N)ncnc32)C1 [ibrutinib]
- Btk occupancy (Btk [10]): > 95%
- Phosphorylation of PLCγ2 pY1217 ex vivo (PLCγ2 pY1217): complete inhibition
- Phosphorylation of Btk on Y551 (Btk pY551; 70 nM, CRP 10 μg/mL): not altered
- Dose at which inhibition of Btk Y551 phosphorylation was seen (Btk pY551; CRP 10 μg/mL): 7 µM
- Peak Ca2+ concentration after a high concentration of CRP ([11]; 70 nM): not altered
- Peak Ca2+ concentration after a high concentration of CRP ([11]; 700 nM): markedly reduced
- Phosphorylation of Src Y418 (Src pY418; 70 nM, CRP 10 μg/mL): not altered
- Reversibility of inhibition of Src pY418 (Src pY418; two washing steps before CRP): reversible
- Concentration giving full blockade of Tec phosphorylation (Tec): 7 µM
- Concentration giving partial blockade of Tec phosphorylation (Tec): 170 nM
- Response to a sub-maximal concentration of CRP ([3]; 70 nM): reduced response
- Aggregation in response to a high concentration of CRP ([3]; 70 nM, incubation ≥5 min, CRP 10 μg/mL): time-dependent delay in aggregation
- Aggregation in response to a high dose of CRP ([3]; 700 nM, incubation ≥30 s, CRP 10 μg/mL): block aggregation
- Platelet aggregation induced by ADP and PAR1 peptide ex vivo [4]: not altered
- NFAT signaling, WT and KD Btk transfected cells ([12]; high dose (range 0.5-10 μM)): blocked NFAT signaling
- NFAT signaling, cells transfected with WT or KD Btk ([12]; low dose (range 0.5-10 μM)): had no effect
- Autophosphorylation of Btk (Btk pY223 [6]; 70 nM, CRP 10 μg/mL): reduced to basal levels
- Reversibility of inhibition of Btk pY223 autophosphorylation (Btk pY223 [6]; two washing steps before CRP): irreversible
- Dose at which inhibition of whole cell phosphorylation was seen ([13]; CRP 10 μg/mL): 7 µM
- Reversibility of inhibition of global tyrosine phosphorylation ([13]; two washing steps before CRP): reversible on washout
- ATP secretion in response to a high concentration of CRP ([14]; 70 nM): no effect
- ATP secretion in response to a high concentration of CRP ([14]; 700 nM): blocked
- Bound to plasma proteins [15]: 97%
- Phosphorylation of downstream PLCγ2 ([7]; 70 nM, CRP 10 μg/mL): reduced to basal levels
- Reversibility of inhibition of PLCγ2 pY753 and pY1217 ([7]; two washing steps before CRP): irreversible
- GPVI-induced platelet aggregation ex vivo [8]: blocked
- Phosphorylation of SLP-76 Y145 (SLP-76 pY145; 70 nM, CRP 10 μg/mL): not altered
- Dose at which inhibition of SLP-76 Y145 phosphorylation was seen (SLP-76 pY145; CRP 10 μg/mL): 7 µM
- Initial half-life [9]: 2 to 3 h
- Terminal half-life [9]: 4 to 8 h
- Phosphorylation of LAT Y200 (LAT pY200; 70 nM, CRP 10 μg/mL): not altered
- Dose at which inhibition of LAT Y200 phosphorylation was seen (LAT pY200; CRP 10 μg/mL): 7 µM
- Phosphorylation of Syk Y525/6 (Syk pY525/6; 70 nM, CRP 10 μg/mL): not altered
- Dose at which inhibition of Syk Y525/6 phosphorylation was seen (Syk pY525/6; CRP 10 μg/mL): 7 µM
